A short description of this data set: Net charge vs pH of the payload molecule. The class given is physicochemical. The text has this:
Step 2: This is an essential step. For short payload molecules with a single ionizable group is enough to know pKa, so the useful pH range is pH>pKa+1 for acidic compounds and pH<pKa−1 for basic compounds. For payloads that are macromolecules with multiple different ionizable groups, such as peptides and proteins, must be measured or calculated net charge vs pH dependence for the full pH range (0-14). Provided three examples, refer to FIGS. 1 to 3.
For the vancomycin example, there are two ranges of pH where it is ionized (FIG. 1), one is pH 1 and below and the second range is pH 8 and up. Vancomycin at pH ˜1 acquires net charge +1, however at pH 12, the net charge is −4.5. Therefore, vancomycin must be encapsulated at pH 12 by the disclosed method as a “negatively charged payload”. Note, in the range of pH from 3 to 7.5 it is impossible to encapsulate vancomycin because it has no charge.
Both Cas9 and Cas13 endonucleases have to be encapsulated at pH<4 as “positively charged payloads”.

Molecules are shown by their SMILES.

On to `CN[C@H](CC(C)C)C(=O)N[C@H]1C(=O)N[C@@H](CC(N)=O)C(=O)N[C@H]2C(=O)N[C@H]3C(=O)N[C@H](C(=O)N[C@H](C(=O)O)c4cc(O)cc(O)c4-c4cc3ccc4O)[C@H](O)c3ccc(c(Cl)c3)Oc3cc2cc(c3O[C@@H]2O[C@H](CO)[C@@H](O)[C@H](O)[C@H]2O[C@H]2C[C@](C)(N)[C@H](O)[C@H](C)O2)Oc2ccc(cc2Cl)[C@H]1O` [Vancomycin, vancomycin], for which the net charge was −4.5 (pH 12 (FIG. 1)), “no charge” (pH from 3 to 7.5 (FIG. 1)) and “+1” (pH ˜1 (FIG. 1)).

(Values after patent US20240226245A9, “ZIP-IN TECHNOLOGY FOR ANTIVIRAL THERAPEUTIC NANOFORMULATIONS” (PAROLE LABORATORIES INC., priority 2022, published 2024).)
